Measured values taken from the NIST ThermoML archive (doi:10.1016/j.tca.2011.10.009).
± gives the expanded uncertainty stated by the source.

Assays:
[1] = Liquid; for mass density: Vibrating tube method
[2] = mn = molality of the nth substance listed, in mol/kg; details: 101 kPa, Liquid; for viscosity: Capillary tube (Ostwald / Ubbelohde) method; for mass density: Vibrating tube method
[3] = refractive index (Na D-line) (dimensionless); mn = molality of the nth substance listed, in mol/kg; details: 298.15 K, 101 kPa, Liquid, Standard Abbe refractometry

**Q.** For `CCCCCCn1cc[n+](C)c1.[Br-]` [3-hexyl-1-methyl-1H-imidazolium bromide], which mass density ([1]; 298.15 K, 101.33 kPa) is on record?
**A.** 1222.1 ± 0.5 kg/m3

**Q.** With `CCCCCCn1cc[n+](C)c1.[Br-]` [3-hexyl-1-methyl-1H-imidazolium bromide] + CN(C)C=O as the compound, how does the viscosity ([2]; 298.15 K, m1 = 2.17e-05) read?
**A.** 0.897 ± 0.015 mPa·s

**Q.** What about the viscosity ([2]; 298.15 K, m1 = 4.17e-05) of the same compound?
**A.** 0.913 ± 0.015 mPa·s

**Q.** What about the viscosity ([2]; 298.15 K, m1 = 6.26e-05) of the same compound?
**A.** 0.929 ± 0.015 mPa·s

**Q.** What about the viscosity ([2]; 298.15 K, m1 = 7.78e-05) of the same compound?
**A.** 0.938 ± 0.015 mPa·s

**Q.** What about the viscosity ([2]; 298.15 K, m1 = 9.98e-05) of the same compound?
**A.** 0.952 ± 0.015 mPa·s

**Q.** And the viscosity ([2]; 298.15 K, m1 = 0.0001171)?
**A.** 0.969 ± 0.015 mPa·s

**Q.** What about the viscosity ([2]; 298.15 K, m1 = 0.0001363) of the same compound?
**A.** 0.985 ± 0.016 mPa·s

**Q.** And the viscosity ([2]; 298.15 K, m1 = 0.0001507)?
**A.** 0.997 ± 0.016 mPa·s

**Q.** And the viscosity ([2]; 298.15 K, m1 = 0.0001787)?
**A.** 1.014 ± 0.016 mPa·s

**Q.** What about the viscosity ([2]; 298.15 K, m1 = 0.0001961) of the same compound?
**A.** 1.022 ± 0.016 mPa·s

**Q.** And the mass density ([2]; 298.15 K, m1 = 0.0233)?
**A.** 945.6 ± 0.82 kg/m3

**Q.** And the mass density ([2]; 298.15 K, m1 = 0.0435)?
**A.** 946.89 ± 0.83 kg/m3

**Q.** What about the mass density ([2]; 298.15 K, m1 = 0.0658) of the same compound?
**A.** 948.29 ± 0.83 kg/m3

**Q.** What about the mass density ([2]; 298.15 K, m1 = 0.0824) of the same compound?
**A.** 949.31 ± 0.83 kg/m3

**Q.** What about the mass density ([2]; 298.15 K, m1 = 0.1049) of the same compound?
**A.** 950.67 ± 0.83 kg/m3

**Q.** And the mass density ([2]; 298.15 K, m1 = 0.1228)?
**A.** 951.73 ± 0.83 kg/m3

**Q.** And the mass density ([2]; 298.15 K, m1 = 0.1428)?
**A.** 952.91 ± 0.83 kg/m3

**Q.** And the mass density ([2]; 298.15 K, m1 = 0.1583)?
**A.** 953.83 ± 0.83 kg/m3

**Q.** What about the mass density ([2]; 298.15 K, m1 = 0.1869) of the same compound?
**A.** 955.45 ± 0.84 kg/m3

**Q.** What about the mass density ([2]; 298.15 K, m1 = 0.2051) of the same compound?
**A.** 956.47 ± 0.84 kg/m3

**Q.** What about the mass density ([2]; 303.15 K, m1 = 0.0233) of the same compound?
**A.** 942.35 ± 0.82 kg/m3

**Q.** And the mass density ([2]; 303.15 K, m1 = 0.0435)?
**A.** 943.65 ± 0.82 kg/m3

**Q.** And the mass density ([2]; 303.15 K, m1 = 0.0658)?
**A.** 945.07 ± 0.82 kg/m3

**Q.** What about the mass density ([2]; 303.15 K, m1 = 0.0824) of the same compound?
**A.** 946.1 ± 0.82 kg/m3

**Q.** And the mass density ([2]; 303.15 K, m1 = 0.1049)?
**A.** 947.48 ± 0.83 kg/m3

**Q.** What about the mass density ([2]; 303.15 K, m1 = 0.1228) of the same compound?
**A.** 948.58 ± 0.83 kg/m3

**Q.** And the mass density ([2]; 303.15 K, m1 = 0.1428)?
**A.** 949.77 ± 0.83 kg/m3

**Q.** And the mass density ([2]; 303.15 K, m1 = 0.1583)?
**A.** 950.67 ± 0.83 kg/m3

**Q.** And the mass density ([2]; 303.15 K, m1 = 0.1869)?
**A.** 952.33 ± 0.83 kg/m3

**Q.** What about the mass density ([2]; 303.15 K, m1 = 0.2051) of the same compound?
**A.** 953.36 ± 0.83 kg/m3

**Q.** And the mass density ([2]; 308.15 K, m1 = 0.0233)?
**A.** 937.3 ± 0.81 kg/m3

**Q.** What about the mass density ([2]; 308.15 K, m1 = 0.0435) of the same compound?
**A.** 938.59 ± 0.82 kg/m3

**Q.** And the mass density ([2]; 308.15 K, m1 = 0.0658)?
**A.** 939.99 ± 0.82 kg/m3

**Q.** And the mass density ([2]; 308.15 K, m1 = 0.0824)?
**A.** 941.01 ± 0.82 kg/m3

**Q.** What about the mass density ([2]; 308.15 K, m1 = 0.1049) of the same compound?
**A.** 942.38 ± 0.82 kg/m3

**Q.** What about the mass density ([2]; 308.15 K, m1 = 0.1228) of the same compound?
**A.** 943.44 ± 0.82 kg/m3

**Q.** And the mass density ([2]; 308.15 K, m1 = 0.1428)?
**A.** 944.62 ± 0.82 kg/m3

**Q.** What about the mass density ([2]; 308.15 K, m1 = 0.1583) of the same compound?
**A.** 945.53 ± 0.82 kg/m3

**Q.** What about the mass density ([2]; 308.15 K, m1 = 0.1869) of the same compound?
**A.** 947.16 ± 0.83 kg/m3

**Q.** And the mass density ([2]; 308.15 K, m1 = 0.2051)?
**A.** 948.17 ± 0.83 kg/m3

**Q.** And the mass density ([2]; 313.15 K, m1 = 0.0233)?
**A.** 932.21 ± 0.81 kg/m3

**Q.** What about the mass density ([2]; 313.15 K, m1 = 0.0435) of the same compound?
**A.** 933.56 ± 0.81 kg/m3

**Q.** And the mass density ([2]; 313.15 K, m1 = 0.0658)?
**A.** 935.02 ± 0.81 kg/m3

**Q.** What about the mass density ([2]; 313.15 K, m1 = 0.0824) of the same compound?
**A.** 936.08 ± 0.81 kg/m3

**Q.** What about the mass density ([2]; 313.15 K, m1 = 0.1049) of the same compound?
**A.** 937.52 ± 0.81 kg/m3

**Q.** What about the mass density ([2]; 313.15 K, m1 = 0.1228) of the same compound?
**A.** 938.65 ± 0.82 kg/m3

**Q.** What about the mass density ([2]; 313.15 K, m1 = 0.1428) of the same compound?
**A.** 939.88 ± 0.82 kg/m3

**Q.** What about the mass density ([2]; 313.15 K, m1 = 0.1583) of the same compound?
**A.** 940.81 ± 0.82 kg/m3

**Q.** And the mass density ([2]; 313.15 K, m1 = 0.1869)?
**A.** 942.51 ± 0.82 kg/m3

**Q.** What about the mass density ([2]; 313.15 K, m1 = 0.2051) of the same compound?
**A.** 943.57 ± 0.82 kg/m3

**Q.** What about the refractive index ([3]; m1 = 0.0233) of the same compound?
**A.** 1.4303 ± 0.0005

**Q.** What about the refractive index ([3]; m1 = 0.0435) of the same compound?
**A.** 1.4306 ± 0.0005

**Q.** What about the refractive index ([3]; m1 = 0.0658) of the same compound?
**A.** 1.4311 ± 0.0005

**Q.** What about the refractive index ([3]; m1 = 0.0824) of the same compound?
**A.** 1.4316 ± 0.0005

**Q.** And the refractive index ([3]; m1 = 0.1049)?
**A.** 1.432 ± 0.0005

**Q.** And the refractive index ([3]; m1 = 0.1228)?
**A.** 1.4325 ± 0.0005

**Q.** What about the refractive index ([3]; m1 = 0.1428) of the same compound?
**A.** 1.433 ± 0.0005

**Q.** What about the refractive index ([3]; m1 = 0.1583) of the same compound?
**A.** 1.4336 ± 0.0005

**Q.** And the refractive index ([3]; m1 = 0.1869)?
**A.** 1.4344 ± 0.0005

**Q.** What about the refractive index ([3]; m1 = 0.2051) of the same compound?
**A.** 1.4347 ± 0.0005

**Q.** With `C(=NCCN=Cc1ccccn1)c1ccccn1` [N,N'-bis(2-pyridinylmethylene)-1,2-ethanediamine] + CN(C)C=O as the compound, how does the viscosity ([2]; 298.15 K, m1 = 0.0402) read?
**A.** 0.878 ± 0.015 mPa·s

**Q.** What about the viscosity ([2]; 298.15 K, m1 = 0.0764) of the same compound?
**A.** 0.893 ± 0.015 mPa·s

**Q.** What about the viscosity ([2]; 298.15 K, m1 = 0.1208) of the same compound?
**A.** 0.909 ± 0.015 mPa·s

**Q.** What about the viscosity ([2]; 298.15 K, m1 = 0.1644) of the same compound?
**A.** 0.926 ± 0.015 mPa·s

**Q.** And the mass density ([2]; 298.15 K, m1 = 0.0402)?
**A.** 945.46 ± 0.82 kg/m3

**Q.** And the mass density ([2]; 298.15 K, m1 = 0.0764)?
**A.** 946.76 ± 0.83 kg/m3

**Q.** And the mass density ([2]; 298.15 K, m1 = 0.1208)?
**A.** 948.07 ± 0.83 kg/m3

**Q.** What about the mass density ([2]; 298.15 K, m1 = 0.1644) of the same compound?
**A.** 949.29 ± 0.83 kg/m3

**Q.** And the mass density ([2]; 303.15 K, m1 = 0.0402)?
**A.** 941.5 ± 0.82 kg/m3

**Q.** And the mass density ([2]; 303.15 K, m1 = 0.0764)?
**A.** 942.72 ± 0.82 kg/m3

**Q.** And the mass density ([2]; 303.15 K, m1 = 0.1208)?
**A.** 943.95 ± 0.82 kg/m3

**Q.** What about the mass density ([2]; 303.15 K, m1 = 0.1644) of the same compound?
**A.** 944.72 ± 0.82 kg/m3

**Q.** What about the mass density ([2]; 308.15 K, m1 = 0.0402) of the same compound?
**A.** 936.79 ± 0.81 kg/m3

**Q.** What about the mass density ([2]; 308.15 K, m1 = 0.0764) of the same compound?
**A.** 937.92 ± 0.81 kg/m3

**Q.** What about the mass density ([2]; 308.15 K, m1 = 0.1208) of the same compound?
**A.** 939.19 ± 0.82 kg/m3

**Q.** And the mass density ([2]; 308.15 K, m1 = 0.1644)?
**A.** 940.14 ± 0.82 kg/m3

**Q.** What about the mass density ([2]; 313.15 K, m1 = 0.0402) of the same compound?
**A.** 931.89 ± 0.81 kg/m3

**Q.** And the mass density ([2]; 313.15 K, m1 = 0.0764)?
**A.** 933.39 ± 0.81 kg/m3

**Q.** And the mass density ([2]; 313.15 K, m1 = 0.1208)?
**A.** 934.92 ± 0.81 kg/m3

**Q.** What about the mass density ([2]; 313.15 K, m1 = 0.1644) of the same compound?
**A.** 936.16 ± 0.81 kg/m3

**Q.** Which results are given for `CN(C)C=O` [dimethylformamide]?
**A.** viscosity ([1]; 298.15 K, 101 kPa, Capillary tube (Ostwald / Ubbelohde) method): 0.861 ± 0.014 mPa·s; mass density ([1]; 298.15 K, 101 kPa): 944.09 ± 0.82 kg/m3; mass density ([1]; 303.15 K, 101 kPa): 940.82 ± 0.82 kg/m3; mass density ([1]; 308.15 K, 101 kPa): 935.79 ± 0.81 kg/m3; mass density ([1]; 313.15 K, 101 kPa): 930.63 ± 0.81 kg/m3
